According to US12570606B2, “Myeloperoxidase imaging agents” (The General Hospital Corporation, priority 2016, dated 2026):
Structures can show the parent of a compound that is named as a salt. Where two headings read alike, the source gives them in different places.

Experiments:
purified human MPO = molecular target: T1, purified human MPO (Homo sapiens, UniProt P05164); test: Fluorescence molecular tomography (FMT) of MPO embedded in matrigel, sensitivity; format: in vivo, mouse; conditions: 2 nmol i.v. then SA-647, matrigel in thigh
T1 construct: purchased Lee Biosolutions, St. Louis, Mo
T1 sequence (P05164 49-745): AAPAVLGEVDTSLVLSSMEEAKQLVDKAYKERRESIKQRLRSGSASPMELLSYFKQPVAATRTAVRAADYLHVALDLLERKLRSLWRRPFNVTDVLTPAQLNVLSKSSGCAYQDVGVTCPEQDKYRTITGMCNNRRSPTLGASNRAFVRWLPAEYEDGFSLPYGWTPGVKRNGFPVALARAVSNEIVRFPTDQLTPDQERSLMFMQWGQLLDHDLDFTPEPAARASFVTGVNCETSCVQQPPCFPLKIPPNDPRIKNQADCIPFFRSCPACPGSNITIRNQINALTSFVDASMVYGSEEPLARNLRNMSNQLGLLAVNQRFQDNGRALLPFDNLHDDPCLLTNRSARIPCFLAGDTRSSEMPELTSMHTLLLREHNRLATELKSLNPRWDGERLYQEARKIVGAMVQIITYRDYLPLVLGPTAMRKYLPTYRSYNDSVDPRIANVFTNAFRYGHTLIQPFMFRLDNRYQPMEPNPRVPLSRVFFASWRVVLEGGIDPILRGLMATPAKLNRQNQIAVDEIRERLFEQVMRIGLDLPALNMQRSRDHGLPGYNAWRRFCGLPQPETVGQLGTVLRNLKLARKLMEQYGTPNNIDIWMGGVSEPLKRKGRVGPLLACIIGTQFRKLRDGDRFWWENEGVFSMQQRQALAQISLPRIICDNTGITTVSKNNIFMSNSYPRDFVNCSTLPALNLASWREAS
Excerpt: (§1) Four to ten weeks old female C57BL/6J or MPO-knockout mice (from Jackson Laboratories, Bar Harbor, Me.) were used for all animal experiments. Mice were fed biotin free diet for 5 days before imaging with fluorescence molecular tomography (FMT) or fluorescence […] imaging (FRI).
To validate sensitivity of the Compound 3, different concentrations of purified human MPO (Lee Biosolutions, St. Louis, Mo.) and glucose oxidase (GOX, as a H2O2 donor, Affymetrix, Santa Clara, Calif.) were embedded in a mixture of matrigel (BD Bioscience, San Jose, Calif.) and minimal essential medium (MEM, Corning, Corning, N.Y.), and injected 400 μL of this mixture subcutaneously into the ventral aspect of the thigh. After 30 min, 2 nmol of Compound 3 in 100 μL phosphate buffered saline (PBS) was injected intravenously. One hour later, 25 μL of streptavidin AlexaFluor-647 (2 mg/mL, SA-647, Invitrogen, Carlsbad, Calif.) was injected intravenously, and FMT was performed every 15 minutes for a total of 60 minutes. Mice were imaged on a dedicated FMT system (Perkin Elmer, Waltham, Mass.) at 635 nm excitation and 655 nm emission.

MPO [1] = molecular target: T2, MPO (Homo sapiens, UniProt P05164); test: Fluorescence reflectance imaging (FRI) of GOX/MPO/ABAH in matrigel, specificity; format: in vivo, mouse; conditions: 2 nmol i.v. then SA-647
T2 sequence (P05164 49-745): T1 sequence (P05164 49-745)
Excerpt: as §1

MPO activity [2] = test: Irritant contact dermatitis (PMA) in vivo FRI; set-up: species or system mouse
Procedure: Female C57Bl/6J (wildtype, Jackson laboratories, Bar Harbor, Me.) and MPO-knockout (KO, Jackson laboratories) mice were treated topically with 0.08 μmol Phorbol 12-myristate 13-acetate (PMA, Sigma, St. Louis, Mo.) on one hind-paw and with vehicle on the other to induce irritant contact dermatitis. This model is well described in the literature and triggers rapid inflammation with influx of neutrophils into the skin. 6 hours after induction, mice were injected intravenously with either 2 nmol of Compound 3 or the non-specific analogue, Compound 18. 1 hour later, 2.5 μg SA-647 was injected intravenously to bind to the biotinylated Compound 3. Mice underwent in vivo imaging using a dedicated in vivo FRI system as described above in Example 11.

MPO activity [3] = molecular target: T3, MPO activity (Mus musculus, UniProt P11247); test: Brain abscess (salmonella), ex vivo FRI of coronal brain slices; format: in vivo; conditions: probe at 23 hours
T3 construct: from tissue; host or cells: C57Bl/6J mice: PMA-treated hind-paw, salmonella brain abscess (slices and frozen sections), S. pneumoniae cellulitis of the thigh
T3 sequence (P11247 139-718): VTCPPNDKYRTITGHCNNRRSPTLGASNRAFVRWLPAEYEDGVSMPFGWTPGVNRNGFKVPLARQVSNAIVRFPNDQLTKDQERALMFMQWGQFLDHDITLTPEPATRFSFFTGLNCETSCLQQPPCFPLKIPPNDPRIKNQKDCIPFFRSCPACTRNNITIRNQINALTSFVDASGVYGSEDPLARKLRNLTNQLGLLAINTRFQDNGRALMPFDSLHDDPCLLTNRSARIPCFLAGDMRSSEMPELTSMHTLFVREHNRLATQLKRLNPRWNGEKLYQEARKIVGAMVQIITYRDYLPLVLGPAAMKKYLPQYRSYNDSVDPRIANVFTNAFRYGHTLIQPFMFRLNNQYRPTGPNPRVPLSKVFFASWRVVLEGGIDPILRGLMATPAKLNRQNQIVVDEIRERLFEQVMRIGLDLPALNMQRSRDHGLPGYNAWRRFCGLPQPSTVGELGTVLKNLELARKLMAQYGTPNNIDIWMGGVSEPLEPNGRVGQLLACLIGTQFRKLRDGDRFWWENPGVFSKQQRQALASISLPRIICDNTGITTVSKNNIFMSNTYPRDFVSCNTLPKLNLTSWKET
Procedure: (§2) Female C57Bl/6J mice were then anesthetized and fixed in a stereotactic head frame (David Kopf Instruments, Tujunga, Calif.). 1-3×10^6 colony forming units (CFU) salmonella bacteria (ATCC #14028) were suspended in 2 μL PBS and slowly injected into the deep frontal white matter (2.0 mm lateral and 1.2 mm anterior to bregma) at a depth of 3.0 mm. 23 hours later, mice were injected intravenously with 2 nmol Compound 3 as above, followed by intravenous injection of SA-647. Mice were then anesthetized with Isoflurane and transcardially perfused with 20 mL of ice cold PBS. Brains were harvested and cut into 1 mm coronal slices using a brain slicer (Harvard Apparatus, Holliston, Mass.) and immediately underwent FRI as described above. Brains from mice injected with salmonella were also embedded in OCT (Sakura, Torrance, Calif.) and snap-frozen in chilled isopentane (Sigma) and stored at […] until sectioning. Serial 6 μm sections were cut on a cryostat (Thermo scientific). Sections were thawed at room temperature for 10-20 minutes and rehydrated in PBS for 10 minutes. Then sections were incubated in blocking buffer (1% horse serum in PBS) for 30 minutes at room temperature, and incubated with MPO specific probe diluted in incubation buffer (1% bovine serum albumin 1% normal donkey serum, 0.3% Triton X-100, and 0.01% sodium azide in PBS) overnight at 4° C. […]

MPO activity [4] = molecular target: T3, MPO activity; test: Staining of fresh-frozen ex vivo brain sections with Compound 3 and SA-647; conditions: Compound 3 followed by SA-647
Procedure: as §2

MPO activity [5] = molecular target: T3, MPO activity; test: Bacterial cellulitis (Streptococcus pneumoniae), in vivo FRI of neutrophil extracellular traps
Procedure: Female C57Bl/6J mice were injected subcutaneously at the dorsal aspect of the thigh with 10^8 CFU of Streptococcus pneumonia (SPn, ATCC #6303) to induce bacterial cellulitis. 6 hours after induction, mice were injected intravenously with 2 nmol of […]. 1 hour later, 2.5 μg Strepavidin-AlexaFluor-647 were injected intravenously to bind to the biotinylated Compound 3. To distinguish neutrophil granule release (where MPO and other granule proteins are secreted into the phagosome or extracellular space) from NET formation (where chromatin strands with MPO are released by neutrophils), 1 μg of the membrane-impermeable DNA dye Sytox Green (Invitrogen) was injected intravenously at the same time. Mice then underwent in vivo imaging using a dedicated FRI system as described above in Example 11. AlexaFluor-647 bound to MPO-sensor was detected at 595-635 nm excitation and 675/50 nm emission. Sytox Green was detected at 460-490 nm excitation and 530/40 nm emission.

MPO [6] = molecular target: T4, MPO (Mus musculus, UniProt P11247); test: CNR of Compound 3 in dermatitis, CNS abscess and cellulitis models; format: in vivo; set-up: from tissue; conditions: detection of dermatitis
T4 sequence (P11247 139-718): T3 sequence (P11247 139-718)

MPO [7] = molecular target: T2, MPO; test: In vitro color change (oligomerization) with MPO; format: biochemical; conditions: 2 mM, 37° C., 1 hr
Procedure: (§3) Each vial contains 2 mM of ^19F compound 9 in PBS (150 uL, 5% DMSO) and the following agents, and was incubated at 37° C. for 1 hr: • Vial 1: control (2 mM 19F […] only) • Vial 2: Glucose (6 μL, 1M), GOX (4 μL, 1 mg/mL); • Vial 3: H2O2 (2 μL), HRP (horseradish peroxidase, 1 μL); • Vial 4: H2O2(2 μL), MPO (10 μL): • Vial 5: H2O2 (2 μL), MPO (10 μL);

[8] = system: HRP (horseradish peroxidase); test: In vitro color change (oligomerization) with horseradish peroxidase; format: biochemical; conditions: Vial 3: H2O2, HRP; 2 mM, 37° C., 1 hr
Procedure: as §3

[9] = Solubility of the hydrochloric acid salt; format: physicochemical; conditions: hydrochloric acid salt after Boc de-protection with 1M HCl
MPO [10] = molecular target: T2, MPO; conditions: in vitro; cited from earlier work
MPO [11] = molecular target: T2, MPO; set-up: host or cells: transgenic mice overexpressing human MPO; conditions: in vivo, transgenic mice with overexpression of human MPO; cited from earlier work

## O=C(CCCC[C@@H]1SC[C@@H]2NC(=O)N[C@@H]21)N[C@@H](Cc1c[nH]c2ccc(O)cc12)C(=O)NCCc1c[nH]c2ccc(O)cc12 [Compound 3, N—((S)-3-(5-hydroxy-1H-indol-3-yl)-1-((2-(5-hydroxy-1H-indol-3-yl)ethyl)amino)-1-oxopropan-2-yl)-5-((3aS,4S,6aR)-2-oxohexahydro-1H-thieno[3,4-d]imidazol-4-yl)pentanamide]
Purified human MPO
  FMT fluorescence signal versus MPO concentration: linear increase in signal
MPO [1]
  FRI fluorescence signal in absence of both MPO and GOX: no appreciable fluorescence
  FRI fluorescence signal with MPO and GOX in matrigel: increased fluorescent signal
  FRI fluorescence signal with MPO but without GOX: no fluorescence was detectible
MPO activity [2]; MPO-KO mice
  Fluorescence intensity, PMA-treated hind-paw: 36.9±9.8 RFU
  Fluorescence intensity, vehicle-treated hind-paw: 43.9±10.8 RFU
MPO activity [2]; wildtype mice
  Fluorescence intensity, PMA-treated hind-paw: 130.5±4.7 RFU
  Fluorescence intensity, vehicle-treated hind-paw: 34.4±8.6 RFU
MPO activity [3]
  Fluorescence intensity, contralateral hemisphere (mean value): 10972 RFU
  Fluorescence intensity, ipsilateral hemisphere (mean value): 43242 RFU
MPO activity [4]
  Fluorescent signal on abscess and control sections: increased fluorescent signal consistent with MPO activity in the ipsilateral hemisphere but not the contralateral hemisphere
MPO activity [5]; contralateral thigh
  Fluorescence signal, side injected with PBS: 49.4±15.5 RFUs
MPO activity [5]; thigh, 6 hours after induction
  Fluorescence signal, side injected with SPn: 212.5±22.9 RFU
MPO [6]
  CNR: approximately 4

## O=C(Cc1c[nH]c2ccc(O)cc12)N[C@@H](Cc1c[nH]c2ccc(O)cc12)C(=O)NCCOCCOCCF [Compound 8, (S)—N-(2-(2-(2-fluoroethoxy)ethoxy)ethyl)-3-(5-hydroxy-1H-indol-3-yl)-2-(2-(5-hydroxy-1H-indol-3-yl)acetamido)propanamide]
MPO [7]; Vial 2: Glucose, GOX, no MPO
  Color change: no color change
MPO [7]; Vials 4 and 5: H2O2, MPO
  Color change: turned to yellow or brown
[8]
  Color change: turned to yellow or brown

## CN(C)CCCC[C@H](NC(=O)[C@H](Cc1c[nH]c2ccc(O)cc12)NC(=O)Cc1c[nH]c2ccc(O)cc12)C(=O)NCCOCCOCC[18F] [Example 18, (S)-6-(dimethylamino)-N-(2-(2-(2-fluoro-^18F)ethoxy)ethoxy)ethyl)-2-((S)-3-(5-hydroxy-1H-indol-3-yl)-2-(2-(5-hydroxy-1H-indol-3-yl)acetamido)propanamido)hexanamide hydrochloric acid salt]
[9]
  Solubility: increased solubility

## sulfonaphthoaminophenyl fluorescein [SNAPF]
MPO [10]
  CNR: around 1.4
MPO [11]
  CNR: ~1.6
